Assay results reported in patent US10981926B2 (Janssen Pharmaceutica NV, priority 2016, dated 2021).

Experiments:
Type in all cases: cell-based
[1] = biological target: T1, wild-type Androgen Receptor (AR-wt) (Homo sapiens (Human), UniProt P10275); test: LNCaP-AR-wt ANT reporter assay (antagonist mode); details: for IC50 / LNCaP-AR-wt ANT pIC50: antagonist mode, pIC50 = −Log10(IC50 in Molar); for IC50: read-out: LNCaP-AR-wt ANT pIC50 (converted); for Emax: maximum % inhibition of R1881 control response over the tested concentration range, read-out: LNCaP-AR-wt ANT MAX % Inh
T1 sequence (P10275 whole entry): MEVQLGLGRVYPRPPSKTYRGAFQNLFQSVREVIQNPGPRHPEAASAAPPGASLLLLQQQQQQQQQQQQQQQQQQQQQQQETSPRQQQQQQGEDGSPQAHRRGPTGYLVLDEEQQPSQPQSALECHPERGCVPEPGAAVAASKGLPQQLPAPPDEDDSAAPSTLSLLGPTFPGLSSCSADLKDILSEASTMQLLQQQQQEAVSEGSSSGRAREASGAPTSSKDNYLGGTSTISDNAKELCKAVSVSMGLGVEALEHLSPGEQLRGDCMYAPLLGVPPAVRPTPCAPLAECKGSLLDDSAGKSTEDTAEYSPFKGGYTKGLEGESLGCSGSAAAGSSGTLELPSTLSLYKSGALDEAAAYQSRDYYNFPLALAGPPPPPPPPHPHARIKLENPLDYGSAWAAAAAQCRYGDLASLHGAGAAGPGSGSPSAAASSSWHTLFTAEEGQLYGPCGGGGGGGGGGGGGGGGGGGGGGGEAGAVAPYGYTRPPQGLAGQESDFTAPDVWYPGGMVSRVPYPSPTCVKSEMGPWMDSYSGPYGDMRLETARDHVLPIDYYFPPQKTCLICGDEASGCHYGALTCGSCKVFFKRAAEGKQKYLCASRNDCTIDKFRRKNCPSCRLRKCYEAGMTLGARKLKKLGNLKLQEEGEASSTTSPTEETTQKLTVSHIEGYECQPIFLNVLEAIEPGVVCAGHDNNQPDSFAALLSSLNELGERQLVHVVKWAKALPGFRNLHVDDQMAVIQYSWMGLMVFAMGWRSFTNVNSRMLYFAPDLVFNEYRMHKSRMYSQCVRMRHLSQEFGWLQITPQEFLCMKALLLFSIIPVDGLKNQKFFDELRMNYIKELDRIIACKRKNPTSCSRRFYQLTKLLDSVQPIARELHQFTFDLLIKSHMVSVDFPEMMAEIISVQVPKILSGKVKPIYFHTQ

[2] = biological target: T1, wild-type Androgen Receptor (AR-wt); test: LNCaP-AR-wt AG reporter assay (agonist mode); details: for EC50 / LNCaP-AR-wt AG pEC50: agonist mode, pEC50 = −Log10(EC50 in Molar); for EC50: read-out: LNCaP-AR-wt AG pEC50 (converted); for Emax: maximum % stimulation (agonist response) over the tested concentration range, read-out: LNCaP-AR-wt AG MAX % Stim
[3] = biological target: T2, F876L mutant Androgen Receptor (AR-F876L) (Homo sapiens (Human), UniProt P10275, F877L); test: LNCaP-AR-F876L ANT reporter assay (antagonist mode); details: for IC50 / LNCaP-AR-F876L ANT pIC50: antagonist mode, pIC50 = −Log10(IC50 in Molar); for IC50: read-out: LNCaP-AR-F876L ANT pIC50 (converted); for Emax: maximum % inhibition of R1881 control response over the tested concentration range, read-out: LNCaP-AR-F876L ANT MAX % Inh
T2 sequence (P10275 whole entry F877L): as the sequence (P10275 whole entry) above, with F877L counted along it

[4] = biological target: T2, F876L mutant Androgen Receptor (AR-F876L); test: LNCaP-AR-F876L AG reporter assay (agonist mode); details: for EC50 / LNCaP-AR-F876L AG pEC50: agonist mode, pEC50 = −Log10(EC50 in Molar); for EC50: read-out: LNCaP-AR-F876L AG pEC50 (converted); for Emax: maximum % stimulation (agonist response) over the tested concentration range, read-out: LNCaP-AR-F876L AG MAX % Stim

Structure (SMILES)	IC50 [1]	Emax [1]	EC50 [2]	Emax [2]	IC50 [3]	Emax [3]	EC50 [4]	Emax [4]	LNCaP-AR-wt ANT pIC50 [1]	LNCaP-AR-wt AG pEC50 [2]	LNCaP-AR-F876L ANT pIC50 [3]	LNCaP-AR-F876L AG pEC50 [4]
CC(C)(C)OC(=O)N1CCC(n2cc3cc(N4C(=S)N(c5cnc(C#N)c(C(F)(F)F)c5)C(=O)C45CCC5)ccc3n2)CC1 [Cpd 121, tert-butyl 4-[5-[6-[6-cyano-5-(trifluoromethyl)-3-pyridyl]-5-oxo-7-thioxo-6,8-diazaspiro[3.4]octan-8-yl]indazol-2-yl]piperidine-1-carboxylate]	138 nM	97.9%	> 15100 nM	-0.1%	129 nM	99.8%	> 15100 nM	0.5%				
CC(C)(C)OC(=O)N1CCC(Cn2cc3cc(N4C(=S)N(c5cnc(C#N)c(C(F)(F)F)c5)C(=O)C45CCC5)ccc3n2)CC1 [Cpd 122, tert-Butyl 4-[[5-[6-[6-cyano-5-(trifluoromethyl)-3-pyridyl]-5-oxo-7-thioxo-6,8-diazaspiro[3.4]octan-8-yl]indazol-2-yl]methyl]piperidine-1-carboxylate]	282 nM	98%	> 15100 nM	0.3%	282 nM	96.4%	> 15100 nM	0.7%				
N#Cc1ncc(N2C(=O)C3(CCC3)N(c3ccc(C4CC5CCC(C4)N5)cc3)C2=S)cc1C(F)(F)F (stereo not drawn) [Cpd 123, 5-(5-(4-(8-azabicyclo[3.2.1]octan-3-yl)phenyl)-8-oxo-6-thioxo-5,7-diazaspiro[3.4]octan-7-yl)-3-(trifluoromethyl)picolinonitrile]		103%		0.3%		102%		0.2%	5.64	<4.82	6.03	<4.82
CC(=O)N1CCC(Cn2ncc3cc(N4C(=S)N(c5cnc(C#N)c(C(F)(F)F)c5)C(=O)C45CCC5)ccc32)CC1 [Cpd 124, 5-[8-[1-[(1-acetyl-4-piperidyl)methyl]indazol-5-yl]-5-oxo-7-thioxo-6,8-diazaspiro[3.4]octan-6-yl]-3-(trifluoromethyl)pyridine-2-carbonitrile]	115 nM	103%	> 15100 nM	0.3%	39.8 nM	103%	> 15100 nM	0.5%				
CN1CCc2cc(N3C(=S)N(c4cnc(C#N)c(C(F)(F)F)c4)C(=O)C34CCC4)ccc2C1 [Cpd 125, 5-[8-(2-methyl-3,4-dihydro-1H-isoquinolin-6-yl)-5-oxo-7-thioxo-6,8-diazaspiro[3.4]octan-6-yl]-3-(trifluoromethyl)pyridine-2-carbonitrile]	2690 nM	99.5%	> 15100 nM	0.6%	1580 nM	98.1%	> 15100 nM	0%				
N#Cc1ncc(N2C(=O)C3(CCC3)N(c3ccc4nn(CC5CCNCC5)cc4c3)C2=S)cc1C(F)(F)F [Cpd 126, 5-[5-oxo-8-[2-(4-piperidylmethyl)indazol-5-yl]-7-thioxo-6,8-diazaspiro[3.4]octan-6-yl]-3-(trifluoromethyl)pyridine-2-carbonitrile]	275 nM	101%	> 15100 nM	0.2%	204 nM	100%	> 15100 nM	0.8%				
CN1C2C=C(c3ccc(N4C(=S)N(c5cnc(C#N)c(C(F)(F)F)c5)C(=O)C45CCC5)cc3)CC1CC2 (stereo not drawn) [Cpd 127, 5-[8-[4-(8-methyl-8-azabicyclo[3.2.1]oct-3-en-3-yl)phenyl]-5-oxo-7-thioxo-6,8-diazaspiro[3.4]octan-6-yl]-3-(trifluoromethyl)pyridine-2-carbonitrile]		102%		0.5%		102%		0.4%	6.23	<4.82	6.37	<4.82
N#Cc1ncc(N2C(=O)C3(CCC3)N(c3ccc4c(cnn4CC4CCNCC4)c3)C2=S)cc1C(F)(F)F [Cpd 128, 5-(8-Oxo-5-(1-(piperidin-4-ylmethyl)-1H-indazol-5-yl)-6-thioxo-5,7-diazaspiro[3.4]octan-7-yl)-3-(trifluoromethyl)picolinonitrile]	1070 nM	101%	> 15100 nM	0.2%	468 nM	101%	> 15100 nM	0.3%				
CN1CCC(Cn2ncc3cc(N4C(=S)N(c5cnc(C#N)c(C(F)(F)F)c5)C(=O)C45CCC5)ccc32)CC1 [Cpd 132, 5-(5-(1-((1-methylpiperidin-4-yl)methyl)-1H-indazol-5-yl)-8-oxo-6-thioxo-5,7-diazaspiro[3.4]octan-7-yl)-3-(trifluoromethyl)picolinonitrile]	372 nM	101%	> 15100 nM	0.5%	148 nM	98.7%	> 15100 nM	0.9%				
N#Cc1ncc(N2C(=O)C3(CCC3)N(C3CCC(NC(=O)c4ccccc4)CC3)C2=S)cc1C(F)(F)F (stereo not drawn) [Cpd 134, N-[4-[6-[6-cyano-5-(trifluoromethyl)-3-pyridyl]-5-oxo-7-thioxo-6,8-diazaspiro[3.4]octan-8-yl]cyclohexyl]benzamide]	759 nM		> 15100 nM		339 nM		> 15100 nM					
N#Cc1ncc(N2C(=O)C3(CCC3)N(c3ccc(OC4C5CCC4CNC5)nc3)C2=S)cc1C(F)(F)F (stereo not drawn) [Cpd 139, 5-[8-[6-(3-azabicyclo[3.2.1]octan-8-yloxy)-3-pyridyl]-5-oxo-7-thioxo-6,8-diazaspiro[3.4]octan-6-yl]-3-(trifluoromethyl)pyridine-2-carbonitrile]	589 nM	102%	> 15100 nM	1.2%	513 nM	99.8%	> 15100 nM	0.1%				
CC1(Oc2ccc(N3C(=S)N(c4cnc(C#N)c(C(F)(F)F)c4)C(=O)C34CCC4)cc2)CCNCC1 [Cpd 140, 5-[8-[4-[(4-methyl-4-piperidyl)oxy]phenyl]-5-oxo-7-thioxo-6,8-diazaspiro[3.4]octan-6-yl]-3-(trifluoromethyl)pyridine-2-carbonitrile]	1000 nM	99.9%	> 15100 nM	0.3%	339 nM	99.5%	> 15100 nM	0%				
CN1CC(CCOc2ccc(N3C(=S)N(c4cnc(C#N)c(C(F)(F)F)c4)C(=O)C34CCC4)cc2)C1 [Cpd 142, 5-[8-[4-[2-(1-methylazetidin-3-yl)ethoxy]phenyl]-5-oxo-7-thioxo-6,8-diazaspiro[3.4]octan-6-yl]-3-(trifluoromethyl)pyridine-2-carbonitrile]	112 nM	101%	> 15100 nM	-0.2%	117 nM	99%	> 15100 nM	0.8%				
CN1CCC(C)(Oc2ccc(N3C(=S)N(c4cnc(C#N)c(C(F)(F)F)c4)C(=O)C34CCC4)cc2)CC1 [Cpd 143, 5-[8-[4-[(1,4-dimethyl-4-piperidyl)oxy]phenyl]-5-oxo-7-thioxo-6,8-diazaspiro[3.4]octan-6-yl]-3-(trifluoromethyl)pyridine-2-carbonitrile]	1350 nM	103%	> 15100 nM	-0.2%	355 nM	101%	> 15100 nM	0.4%				
N#Cc1ncc(N2C(=O)C3(CCC3)N(c3ccc(OCC4(N)COC4)cc3)C2=S)cc1C(F)(F)F [Cpd 145, 5-[8-[4-[(3-aminooxetan-3-yl)methoxy]phenyl]-5-oxo-7-thioxo-6,8-diazaspiro[3.4]octan-6-yl]-3-(trifluoromethyl)pyridine-2-carbonitrile]	178 nM	101%	> 15100 nM	0.5%	302 nM	98.8%	> 15100 nM	1.8%				
CN1CC2CCC(C1)C2Oc1ccc(N2C(=S)N(c3cnc(C#N)c(C(F)(F)F)c3)C(=O)C23CCC3)cc1 (stereo not drawn) [Cpd 146, 5-[8-[4-[(3-methyl-3-azabicyclo[3.2.1]octan-8-yl)oxy]phenyl]-5-oxo-7-thioxo-6,8-diazaspiro[3.4]octan-6-yl]-3-(trifluoromethyl)pyridine-2-carbonitrile]	100 nM	103%	> 15100 nM	0.1%	61.7 nM	101%	> 15100 nM	-0.1%				
CN1CC2CCC(C1)C2Oc1ccc(N2C(=S)N(c3cnc(C#N)c(C(F)(F)F)c3)C(=O)C23CCC3)cn1 (stereo not drawn) [Cpd 147, 5-[8-[6-[(3-methyl-3-azabicyclo[3.2.1]octan-8-yl)oxy]-3-pyridyl]-5-oxo-7-thioxo-6,8-diazaspiro[3.4]octan-6-yl]-3-(trifluoromethyl)pyridine-2-carbonitrile]	224 nM	102%	> 15100 nM	-0.1%	209 nM	101%	> 15100 nM	-0.1%				
